Target: T1, Aldehyde dehydrogenase 1A1 (Rattus norvegicus) (UniProt P51647)
T1 sequence (whole entry): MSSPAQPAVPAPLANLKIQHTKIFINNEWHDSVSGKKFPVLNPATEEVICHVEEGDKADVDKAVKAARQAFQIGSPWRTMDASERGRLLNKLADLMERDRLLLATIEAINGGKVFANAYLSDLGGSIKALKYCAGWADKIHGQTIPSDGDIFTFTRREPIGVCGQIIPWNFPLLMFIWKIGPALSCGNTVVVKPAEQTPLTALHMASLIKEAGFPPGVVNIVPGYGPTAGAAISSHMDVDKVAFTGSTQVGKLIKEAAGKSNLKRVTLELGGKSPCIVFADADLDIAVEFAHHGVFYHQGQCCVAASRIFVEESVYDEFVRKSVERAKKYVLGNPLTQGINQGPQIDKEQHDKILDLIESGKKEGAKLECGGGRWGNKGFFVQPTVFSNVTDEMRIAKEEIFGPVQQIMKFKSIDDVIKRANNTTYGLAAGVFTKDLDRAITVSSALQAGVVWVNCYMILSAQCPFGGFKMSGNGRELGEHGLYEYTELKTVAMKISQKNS
Experiment: Percent inhibition of rat hepatic mitochondrial […] dehydrogenase
Conditions: concentration not given here

inhibition: > 70%
Structure (SMILES): CCOC(=O)N(OC(=O)N(CC)CC)S(=O)(=O)c1ccccc1
